This test addresses T1, MMP-13 (Homo sapiens, UniProt P45452).
T1 construct: catalytic domain (^104Tyr˜^267Gly) was amplified with RT-PCR; His-tag; enterokinase digestion-site; made in house
In words: Assay for inhibitory activities on MMP-13. The test is classed as biochemical. To be noted: catalytic domain, substrate MOCAc-Pro-Leu-Gly-Leu-A2Pr(DNP)-Ala-Arg-NH2; read-out: MMP-13 (IC50μM). As for the experimental part:
In regard to MMP-13, mRNA was prepared from carcinoma cell SW1353 derived from human cartilage stimulate by IL-1, TNF and catalytic domain (^[…]) was amplified with RT-PCR. This was cloned in Escherichia. coli expression vector […] inserted with His-tag sequence and enterokinase digestion-site, induced and expressed by IPTG (Isopropyl-β-D-thiogalactopyranoside) and expressed in a insoluble fraction. Isolation of MMP-13 from an insoluble fraction was carried out by dissolving in modifier (6M urea) by a usual method and purification with metal chelate chromatography (Ni […] Sepharose). […] The enzymatic activity on MMP was analyzed by the method described in “C. Graham Knight, Frances Willenbrock and Gillian Murphy: A novel coumarin-labelled peptide for sensitive continuous assays of the matrix metalloproteinases: […] The substrate: MOCAc-[…] was purchased from Peptide Institute, Inc., Osaka, Japan.

SMILES strings stand for the structures. Where only a bound is given, the exact number is not on record here.

In the case of `COc1ccc(-c2cnc(-c3ccc(S(=O)(=O)N[C@H](CCSC)C(=O)O)cc3)s2)cc1` [Compound A-3], the IC50 came out at 0.0023 µM. In the case of `O=C(O)[C@@H](Cc1c[nH]c2ccccc12)NS(=O)(=O)c1ccc(-c2ncc(-c3ccc(F)c(F)c3)s2)cc1` [Compound A-14] it was 0.0061 µM; in that of `CSCC[C@@H](NS(=O)(=O)c1ccc(-c2ncc(-c3ccc(Cl)c(Cl)c3)s2)cc1)C(=O)O` [Compound A-15], 0.0135 µM. The figure for `CSc1ccc(-c2ccc(-c3ccc(S(=O)(=O)N[C@@H](C(=O)O)C(C)C)s3)s2)cc1` [Compound L-2] is 0.0147 µM; for `COc1ccc(-c2cnc(-c3ccc(S(=O)(=O)N[C@H](CCC(=O)O)C(=O)O)cc3)o2)cc1` [Compound B-1] it is 0.0199 µM; for `O=C(O)[C@@H]1[C@@H](NS(=O)(=O)c2ccc(-c3ccc(N4CCCC4)cc3)s2)[C@H]2C=C[C@@H]1C2` [Compound O-10] it is 0.6 µM. For `CCCCc1ccc(-n2nnc(-c3ccc(S(=O)(=O)N[C@H](Cc4ccccc4)C(=O)O)cc3)n2)cc1` [Compound I-5], the IC50 was 0.0179 µM. The figure for `O=C(O)[C@@H](Cc1ccc(-c2ccccc2)cc1)NS(=O)(=O)c1ccc(-c2ccccc2)cc1` [Compound E-23] is 1.06 µM. The figure for `O=C(O)[C@@H](Cc1ccccc1)NS(=O)(=O)c1ccc(C#Cc2ccc3c(c2)OCO3)s1` [Compound H-1] is 0.044 µM; for `O=C(O)C[C@@H](NS(=O)(=O)c1ccc(-c2ncc(-c3ccc(Cl)c(Cl)c3)s2)cc1)C(=O)O` [Compound A-16] it is 0.0154 µM.

As to `CSc1ccc(-c2nc(-c3ccc(S(=O)(=O)N[C@H](Cc4ccccc4)C(=O)O)cc3)no2)cc1` [Compound C-10], the IC50 was 0.0174 µM.

On to `CSc1ccc(-c2cnc(-c3ccc(S(=O)(=O)N[C@@H](C(=O)O)C(C)C)cc3)s2)cc1` [Compound A-25], for which the IC50 was found to be 0.00033 µM. In the case of `CCCCc1ccc(-c2ccc(-c3ccc(S(=O)(=O)N[C@@H](C(=O)O)C(C)C)cc3)s2)cc1` [Compound K-2] it was 0.0116 µM; in that of `CSCC[C@@H](NS(=O)(=O)c1ccc(-c2ncc(-c3ccc(Br)cc3)s2)cc1)C(=O)O` [Compound A-8], 0.0038 µM. Regarding `CS(=O)(=O)OCCc1ccc(-n2nnc(-c3ccc(S(=O)(=O)N[C@H](Cc4ccccc4)C(=O)O)cc3)n2)cc1` [Compound I-4], the IC50 is 0.0082 µM.

As to `CNc1ccc(-c2ccc(S(=O)(=O)NC(C(=O)O)C(C)C)s2)cc1` (stereo not drawn) [Compound F-21], the IC50 was determined as 1.26 µM. In the case of `CC(=O)NCCc1ccc(-n2nnc(-c3ccc(S(=O)(=O)N[C@H](Cc4ccccc4)C(=O)O)cc3)n2)cc1` [Compound I-2] it was 0.01 µM; in that of `COc1ccc(-c2cnc(-c3ccc(S(=O)(=O)N[C@H](CCC(=O)O)C(=O)O)cc3)s2)cc1` [Compound A-4], 0.0024 µM; in that of `CCCCc1ccc(-n2nnc(-c3ccc(S(=O)(=O)NC4(C(=O)O)CCCCC4)cc3)n2)cc1` [Compound O-4], 0.0114 µM.

Regarding `O=C(O)[C@H](NS(=O)(=O)c1ccc(-c2ncc(-c3ccc(Br)cc3)s2)cc1)c1ccccc1` [Compound A-7], the IC50 amounted to 0.0111 µM. The figure for `O=C(O)[C@H](Cc1ccccc1)NS(=O)(=O)c1ccc(-c2noc(-c3ccc4cc(Br)ccc4c3)n2)cc1` [Compound C-9] is greater than 10 µM; for `CCC(C)[C@H](NS(=O)(=O)c1ccc(-c2ncc(-c3ccc(OC)cc3)s2)cc1)C(=O)O` (stereo partly drawn) [Compound A-2] it is 0.0013 µM. The figure for `O=C(O)[C@@H](Cc1ccccc1)NS(=O)(=O)c1ccc(-c2ccc(-n3cccc3)cc2)s1` [Compound F-14] is 0.0104 µM; for `CC(C)[C@H](NS(=O)(=O)c1ccc(-c2ccc(N3CCCC3)cc2)s1)C(=O)O` [Compound F-18] it is 0.032 µM. As for `CSc1ccc(-c2ccc(S(=O)(=O)NC(Cc3ccccc3)C(=O)O)s2)cc1` (stereo not drawn) [Compound F-24], the IC50 worked out at 0.0831 µM.

With `Cc1ccc(-c2ccc(S(=O)(=O)NC(C(=O)O)C(C)C)s2)cc1` (stereo not drawn) [Compound F-20], the IC50 worked out at 0.811 µM.

`Cc1ccc(C#Cc2ccc(S(=O)(=O)N[C@H](CCC(=O)O)C(=O)O)s2)cc1` [Compound H-8]: the IC50 was determined as 0.151 µM. In the case of `C[C@@H](NS(=O)(=O)c1ccc(-c2ccc(-n3cccc3)cc2)s1)C(=O)O` [Compound F-15] it was 0.023 µM; in that of `COc1ccc2cc(-c3nc(-c4ccc(S(=O)(=O)N[C@H](C)C(=O)O)cc4)cs3)ccc2c1` [Compound M-2], greater than 10 µM.

Turning to `CC(C)c1ccc(-c2nc(-c3ccc(S(=O)(=O)N[C@H](CC(=O)O)C(=O)O)cc3)no2)cc1` [Compound C-7], the IC50 stood at 0.0196 µM. In the case of `CC(C)(C)c1ccc(-c2ccc(S(=O)(=O)NC(Cc3ccccc3)C(=O)O)cc2)cc1` (stereo not drawn) [Compound E-25] it was 0.39 µM; in that of `O=C(O)[C@@H](Cc1ccccc1)NS(=O)(=O)c1ccc(-c2nc(-c3ccc(C(F)(F)F)cc3)no2)cc1` [Compound D-4], 0.167 µM; in that of `CC1C(=O)NCCN1S(=O)(=O)c1ccc(-c2ccc(N3CCOCC3)cc2)s1` (stereo not drawn) [Compound O-8], 2.99 µM.

With `CC(C)C(NS(=O)(=O)c1ccc(-c2ccc(OC(F)(F)F)cc2)cc1)C(=O)O` (stereo not drawn) [Compound E-20], the IC50 is 0.0141 µM. The figure for `Cc1ccc(C#Cc2ccc(S(=O)(=O)N[C@H](Cc3ccccc3)C(=O)O)s2)cc1F` [Compound H-13] is 0.0604 µM; for `COc1ccc(-c2ccc(S(=O)(=O)NC(C(=O)O)C(C)C)s2)cc1` (stereo not drawn) [Compound F-2] it is 0.53 µM; for `CSCC[C@@H](NS(=O)(=O)c1ccc(-c2ccc(-c3ccc(C)cc3)s2)cc1)C(=O)O` [Compound K-4] it is 0.0938 µM. The figure for `CN(C)c1ccc(-c2ccc(S(=O)(=O)N[C@H]3CCC[C@@H]3C(=O)O)s2)cc1` [Compound O-3] is 0.353 µM. The figure for `CC(C)C(NS(=O)(=O)c1ccc(-c2ccc(Cl)cc2)cc1)C(=O)O` (stereo not drawn) [Compound E-3] is 0.083 µM; for `COc1ccc(-c2ccc(S(=O)(=O)N[C@H](CCSC)C(=O)O)s2)cc1` [Compound F-6] it is 0.0376 µM. Take `CCSc1ccc(-c2ccc(S(=O)(=O)NC(C)C(=O)O)cc2)cc1` (stereo not drawn) [Compound E-14]: the IC50 was found to be 0.0135 µM. In the case of `CCSc1ccc(-c2ccc(S(=O)(=O)NC(Cc3ccccc3)C(=O)O)cc2)cc1` (stereo not drawn) [Compound E-16], the IC50 stood at 0.0142 µM. In the case of `O=C(O)[C@H](Cc1c[nH]c2ccccc12)NS(=O)(=O)c1ccc(-c2ccc(N3CCCC3)cc2)s1` [Compound F-7] it was 0.043 µM. The figure for `CCCCc1ccc(-c2noc(-c3ccc(S(=O)(=O)N[C@H](Cc4ccccc4)C(=O)O)cc3)n2)cc1` [Compound D-3] is 0.1 µM. In the case of `Cc1ccc(-c2ccc(S(=O)(=O)N[C@@H](Cc3c[nH]c4ccccc34)C(=O)O)s2)cc1` [Compound F-19] it was 0.63 µM. Turning to `O=C(O)CCCNS(=O)(=O)c1ccc(-c2ccc(N3CCCC3)cc2)s1` [Compound O-6], the IC50 was determined as 3.14 µM.

As to `CCSc1ccc(-c2ccc(S(=O)(=O)NC(C(=O)O)C(C)CC)cc2)cc1` (stereo not drawn) [Compound E-17], the IC50 is 0.0067 µM.

Turning to `CCSc1ccc(-c2ccc(S(=O)(=O)NC(C(=O)O)C(C)C)cc2)cc1` (stereo not drawn) [Compound E-15], the IC50 was determined as 0.0195 µM. The figure for `CSc1ccc(-c2ccc(S(=O)(=O)NC(CC(C)C)C(=O)O)s2)cc1` (stereo not drawn) [Compound F-4] is 0.0094 µM; for `O=C(O)[C@H](Cc1ccccc1)NS(=O)(=O)c1ccc(C#Cc2ccc3c(c2)OCO3)cc1` [Compound G-9] it is 0.0366 µM.

For the compound `CCC(C)[C@H](NS(=O)(=O)c1ccc(-c2ncc(-c3ccccc3)s2)cc1)C(=O)O` (stereo partly drawn) [Compound A-1], the IC50 turned out to be 0.012 µM.

In the case of `CCOc1ccc(-c2ccc(S(=O)(=O)NC(C(=O)O)C(C)C)cc2)cc1` (stereo not drawn) [Compound E-19], the IC50 came to 0.0122 µM. In the case of `CC(C)C[C@@H](NS(=O)(=O)c1ccc(-c2ncc(-c3ccc(Cl)c(Cl)c3)s2)cc1)C(=O)O` [Compound A-24] it was 0.0482 µM.

On to `O=C(O)[C@H](NS(=O)(=O)c1ccc(-c2ccc(N3CCCC3)cc2)s1)c1ccc(O)cc1` [Compound F-17], for which the IC50 turned out to be 0.0037 µM. In the case of `CC(C)[C@@H](NS(=O)(=O)c1ccc(-c2ccc(-c3ccccc3)cc2)cc1)C(=O)O` [Compound E-24] it was 0.024 µM.

Turning to `CSc1ccc(-c2ccc(S(=O)(=O)N3CCNC(=O)C3C)cc2)cc1` (stereo not drawn) [Compound O-7], the IC50 was found to be 0.883 µM. The figure for `CCOc1ccc(-c2ccc(S(=O)(=O)NC(CC(C)C)C(=O)O)s2)cc1` (stereo not drawn) [Compound F-5] is 0.0183 µM. Consider `COc1ccc(-c2ccc(S(=O)(=O)N[C@H](Cc3c[nH]c4ccccc34)C(=O)O)s2)cc1` [Compound F-9], for which the IC50 is 0.0036 µM. In the case of `O=C(O)CNS(=O)(=O)c1ccc(-c2ccc(N3CCCC3)cc2)s1` [Compound F-13] it was 0.033 µM. On to `O=C(O)[C@@H](NS(=O)(=O)c1ccc(-c2ncc(-c3ccc(Cl)cc3)s2)cc1)c1ccccc1` [Compound A-10], for which the IC50 is 0.0246 µM. The figure for `O=C(O)[C@@H](Cc1ccccc1)NS(=O)(=O)c1ccc(-c2nc(-c3ccc4ccccc4c3)no2)cc1` [Compound D-5] is 1.01 µM; for `O=C(O)[C@H](Cc1c[nH]c2ccccc12)NS(=O)(=O)c1ccc(C#Cc2ccc3ccccc3c2)cc1` [Compound G-6] it is 0.893 µM.

For `CSCC[C@@H](NS(=O)(=O)c1ccc(-c2ccc(SC)cc2)cc1)C(=O)O` [Compound E-7], the IC50 was found to be 0.0197 µM.

The values above are taken from patent US20050227994A1, “Decomposition inhibitor for extracellular matrix of cartilage” (Shionogi & Co., Ltd., priority 2002, published 2005).
